# In ChEMBL document CHEMBL5729293, “Inhibitors of KEAP1-Nrf2 protein-protein interaction” (2022):
# Test: Fluorescence Based Assay: The details of the KEAP1 KELCH ThermoFluor® Assay Construct are as follows: Kelch domain of human KEAP 1 (321-624 aa) was used in the assay. The protein was expressed in E. coli with 6His tag that was cleaved prior to receipt for use.ThermoFluor® experiments were carried out using instruments owned by Janssen Research and Discovery, L.L.C. through its acquisition of 3-Dimensional Pharmaceuticals, Inc. 1,8-ANS (Invitrogen) was used as a fluorescent dye. Protein (KEAP Kelch) and compound solutions were dispensed into black 384-well polypropylene PCR microplates (Abgene) and overlayed with silicone oil (1 μL, Fluka, type DC 200) to prevent evaporation.Reference wells contained KEAP Kelch without compounds, and the assay conditions were as follows: 1.1 μM (0.037mg/mL) KEAP Kelch, 80 μM 1,8-ANS, 25 mM PIPES, pH 7.0, 100 mM NaCl, 0.002% Tween-20.
row,SMILES,Kd
1,Cc1ccc([C@H](CC(=O)O)c2ccn3c(C(F)(F)F)nnc3c2C)cc1CN1C[C@H]2COCCN2c2ncc(Cl)cc2S1(=O)=O,< 1 nM
2,Cc1cnc([C@@H](c2ccn3c(C(F)F)nnc3c2C)C(C)(C)C(=O)O)cc1CN1CC2(CC2)Oc2nc(OCCN3CCCC3)c(C)cc2S1(=O)=O,< 1 nM
3,Cc1ccc([C@H](CC(=O)O)c2ccc3c(nnn3CC3CC3)c2C)cc1CN1C[C@@H]2CCCCN2c2ncccc2S1(=O)=O,< 1 nM
4,CCn1nnc2c(C)c([C@H](CC(=O)O)c3ccc(C)c(CN4CC5(COC5)Oc5ncccc5S4(=O)=O)n3)ccc21,< 1 nM
5,Cc1ccc(C(CC(=O)O)c2ccn3c(C(F)(F)F)nnc3c2C)nc1CN1C[C@@H]2CCCCN2c2ncccc2S1(=O)=O (stereo partly specified),< 1 nM
6,Cc1ccc([C@@H](c2ccn3c(C4CC4)nnc3c2C)C(C)(C)C(=O)O)cc1CN1CC2(CCOCC2)Oc2ncccc2S1(=O)=O,< 1 nM
7,Cc1ccc([C@@H](c2ccn3c(C(F)(F)F)nnc3c2C)C(C)(C)C(=O)O)cc1CN1CC2(CCOCC2)Oc2nc(OCCN3CCOCC3)ccc2S1(=O)=O,< 1 nM
8,Cc1ccc([C@H](CC(=O)O)c2ccn3c(C(F)F)nnc3c2C)cc1CN1C[C@H]2CCCN2c2ncccc2S1(=O)=O,< 1 nM
9,CCn1nnc2c(C)c([C@H](CC(=O)O)c3ccc(C)c(CN4C[C@H]5CCCCN5c5ncccc5S4(=O)=O)n3)ccc21,< 1 nM
10,Cc1ccc(C(CC(=O)O)c2ccn3c(C(F)(F)F)nnc3c2C)cc1CN1CC2(COC2)Oc2ccccc2S1(=O)=O (stereo unspecified),< 1 nM
11,Cc1ccc([C@H](CC(=O)O)c2ccn3c(C(F)(F)F)nnc3c2C)cc1CN1C[C@H]2CCCN2c2ncccc2S1(=O)=O,< 1 nM
12,Cc1ccc([C@H](c2ccn3c(C(F)(F)F)nnc3c2C)C(C)(C)C(=O)O)cc1CN1CC2(CCOCC2)Oc2nc(OCCCOCCCO)ccc2S1(=O)=O,< 1 nM
13,Cc1cnc2c(c1)S(=O)(=O)N(Cc1cc([C@H](c3ccc4c(nnn4C4CC4)c3C)C(C)(C)C(=O)O)ccc1C)CC1(CNC1)O2,< 1 nM
14,Cc1ccc([C@H](c2ccn3c(C(F)(F)F)nnc3c2C)C(C)(C)C(=O)O)cc1CN1CC2(CCOCC2)Oc2nc(NC3CC(O)C3)c(C)cc2S1(=O)=O (stereo partly specified),< 1 nM
15,Cc1ccc(C(CC(=O)O)c2ccn3c(C(F)F)nnc3c2C)cc1CN1C[C@@H]2CCCCN2c2ncccc2S1(=O)=O (stereo partly specified),< 1 nM
16,Cc1ccc([C@@H](c2ccn3c(C(F)(F)F)nnc3c2C)C(C)(C)C(=O)O)cc1CN1CC2(CCOCC2)Oc2nc(OCCN3CCCC3)c(C)cc2S1(=O)=O,< 1 nM
17,Cc1ccc([C@H](c2ccn3c(C(F)(F)F)nnc3c2C)C(C)(C)C(=O)O)cc1CN1CC2(CCOCC2)Oc2nc(N[C@@H](C)CCO)c(C)cc2S1(=O)=O,< 1 nM
18,Cc1ccc([C@@H](CC(=O)O)c2ccn3c(C(F)F)nnc3c2C)cc1CN1CC2(COC2)Oc2ncccc2S1(=O)=O,< 1 nM
19,CCn1nnc2c(C)c([C@H](CC(=O)O)c3ccc(C)c(CN4CC5(COC5)Oc5ccccc5S4(=O)=O)n3)ccc21,< 1 nM
20,Cc1ccc([C@@H](c2ccn3c(C(F)(F)F)nnc3c2C)C(C)(C)C(=O)O)cc1CN1CC2(CCOCC2)Oc2nc(N[C@H](C)CCO)ccc2S1(=O)=O,< 1 nM
21,Cc1ccc(C(CC(=O)O)c2ccn3c(C(F)(F)F)nnc3c2)cc1CN1C[C@@H]2CCCN2c2ncccc2S1(=O)=O (stereo partly specified),< 1 nM
22,Cc1cnc2c(c1)S(=O)(=O)N(Cc1cc(C(c3ccn4c(C(F)F)nnc4c3C)C(C)(C)C(=O)O)ccc1C)CC1(CCOCC1)O2 (stereo unspecified),< 1 nM

row,SMILES,Kd
1,CCn1nnc2c(C)c(C(CC(=O)O)c3ccc(C)c(CN4CC5(CC5)Oc5ncccc5S4(=O)=O)n3)ccc21 (stereo unspecified),< 1 nM
2,Cc1ccc([C@@H](c2ccn3c(C(F)(F)F)nnc3c2C)C(C)(C)C(=O)O)cc1CN1CC2(CC2)Oc2ncccc2S1(=O)=O,< 1 nM
3,Cc1ccc(C(CC(=O)O)c2ccn3c(C(F)F)nnc3c2C)cc1CN1CC2(CCOCC2)Oc2ncc(F)cc2S1(=O)=O (stereo unspecified),< 1 nM
4,Cc1cnc2c(c1)S(=O)(=O)N(Cc1cc([C@@H](CC(=O)O)c3ccn4c(C(F)F)nnc4c3C)ccc1C)CC1(CC1)O2,< 1 nM
5,CCn1nnc2c(C)c([C@@H](c3cnc(C)c(CN4CC5(CCOCC5)Oc5ncc(C)cc5S4(=O)=O)c3)C(C)(C)C(=O)O)ccc21,< 1 nM
6,Cc1cnc2c(c1)S(=O)(=O)N(Cc1cc([C@H](c3cc4cc(C)nnc4n3C)C(C)(C)C(=O)O)ccc1C)CC1(CC1)O2,< 1 nM
7,Cc1ccc([C@@H](c2ccn3c(C(F)F)nnc3c2C)C(C)(C)C(=O)O)cc1CN1CC2(CC2)Oc2nc(OCCN3CCCCC3)c(C)cc2S1(=O)=O,< 1 nM
8,Cc1cnc([C@@H](c2ccn3c(C(F)F)nnc3c2C)C(C)(C)C(=O)O)cc1CN1CC2(CC2)Oc2nc(OCCN3CCCCC3)c(C)cc2S1(=O)=O,< 1 nM
9,Cc1ccc([C@@H](c2ccn3c(C(F)(F)F)nnc3c2C)C(C)(C)C(=O)O)cc1CN1C[C@H]2CCCCN2c2ncc(C#N)cc2S1(=O)=O,< 1 nM
10,CC[C@@H]1CN(Cc2cc(C(CC(=O)O)c3ccn4c(C(F)(F)F)nnc4c3C)ccc2C)S(=O)(=O)c2cccnc2O1 (stereo partly specified),< 1 nM
11,Cc1ccc(C(CC(=O)O)c2ccc3c(nnn3C3CC3)c2C)cc1CN1C[C@]2(C)CCCN2c2ncccc2S1(=O)=O (stereo partly specified),< 1 nM
12,Cc1ncc([C@@H](c2ccc3c(nnn3C3CC3)c2C)C(C)(C)C(=O)O)cc1CN1CC2(COC2)Oc2ncccc2S1(=O)=O,< 1 nM
13,CC[C@@H]1CN(Cc2cc([C@H](CC(=O)O)c3ccn4c(C(F)(F)F)nnc4c3C)ccc2C)S(=O)(=O)c2cccnc2O1,< 1 nM
14,Cc1ccc([C@@H](c2ccc3c(nnn3C3CC3)c2C)C(C)(C)C(=O)O)cc1CN1CC2(CC2)Oc2nc(N[C@@H](C)CN3CCCCC3)c(C)cc2S1(=O)=O,< 1 nM
15,Cc1ccc([C@H](c2ccn3c(C(F)(F)F)nnc3c2C)C(C)(C)C(=O)O)cc1CN1C[C@@H]2CCCCN2c2ncc(C#N)cc2S1(=O)=O,< 1 nM
16,Cc1ccc([C@H](CC(=O)O)c2ccn3c(C(F)(F)F)nnc3c2C)cc1CN1CC(C)(C)Oc2ncccc2S1(=O)=O,< 1 nM
17,Cc1ccc(C(CC(=O)O)c2cc(OC3CC3)c3c(c2)nnn3C)cc1CN1C[C@H]2CCCCN2c2ncccc2S1(=O)=O (stereo partly specified),< 1 nM
18,Cc1ccc(C(CC(=O)O)c2ccn3c(C)nnc3c2)cc1CN1CC(C)(C)Oc2ncccc2S1(=O)=O (stereo unspecified),< 1 nM
19,Cc1ccc([C@@H](c2ccn3c(C(F)(F)F)nnc3c2C)C(C)(C)C(=O)O)cc1CN1CC2(CC2)Oc2nc(OCCN3CCC(F)CC3)c(C)cc2S1(=O)=O,< 1 nM
20,Cc1cc2cc(C(CC(=O)O)c3ccc(C)c(CN4C[C@@H]5CCCCN5c5ncccc5S4(=O)=O)c3)n(C)c2nn1 (stereo partly specified),< 1 nM
21,Cc1ccc([C@H](c2ccn3c(C(F)(F)F)nnc3c2C)C(C)(C)C(=O)O)cc1CN1CC2(CCOCC2)Oc2nc(N[C@H](C)CN3CCCCC3)c(C)cc2S1(=O)=O,< 1 nM
22,Cc1ccc(C(CC(=O)O)c2ccc3c(nnn3CC3CC3)c2C)cc1CN1CC2(COC2)Oc2ccccc2S1(=O)=O (stereo unspecified),< 1 nM

row,SMILES,Kd
1,Cc1ccc(C(c2ccn3c(C(F)(F)F)nnc3c2C)C(C)C(=O)O)cc1CN1C[C@@H]2CCCCN2c2ncccc2S1(=O)=O (stereo partly specified),< 1 nM
2,Cc1ccc([C@H](CC(=O)O)c2ccn3c(C(F)(F)F)nnc3c2C)cc1CN1CC2(CC2)Oc2ncc(Cl)cc2S1(=O)=O,< 1 nM
3,Cc1cnc2c(c1)S(=O)(=O)N(Cc1cc([C@@H](CC(=O)O)c3ccn4c(C(F)(F)F)nnc4c3C)ccc1C)CC1(CC1)O2,< 1 nM
4,CCn1nnc2c(C)c([C@H](c3ccc(C)c(CN4CC5(CCOCC5)Oc5ncccc5S4(=O)=O)n3)C(C)(C)C(=O)O)ccc21,< 1 nM
5,Cc1ncc([C@H](c2ccc3c(nnn3C3CC3)c2C)C(C)(C)C(=O)O)cc1CN1CC2(CCOCC2)Oc2ncccc2S1(=O)=O,< 1 nM
6,Cc1ccc([C@@H](c2ccn3c(C(F)(F)F)nnc3c2C)C(C)(C)C(=O)O)cc1CN1CC2(CCOCC2)Oc2nc(O[C@@H](C)CN3CCCCC3)c(C)cc2S1(=O)=O,< 1 nM
7,CCn1nnc2c(C)c([C@H](CC(=O)O)c3ccc(C)c(CN4C[C@H]5CCCN5c5ccccc5S4(=O)=O)c3)ccc21,< 1 nM
8,Cc1cnc2c(c1)S(=O)(=O)N(Cc1cc([C@H](c3ccn4c(C(F)(F)F)nnc4c3C)C(C)(C)C(=O)O)ccc1C)C[C@@]1(CCOC1)O2,< 1 nM
9,Cc1ccc(C(CC(=O)O)c2ccn3c(C(F)F)nnc3c2C)cc1CN1C[C@@H]2CCCN2c2ncc(C#N)cc2S1(=O)=O (stereo partly specified),< 1 nM
10,Cc1ccc([C@@H](CC(=O)O)c2ccn3c(C(F)(F)F)nnc3c2C)nc1CN1CC2(COC2)Oc2ccccc2S1(=O)=O,< 1 nM
11,CC[C@@H]1CN(Cc2nc([C@H](CC(=O)O)c3ccc4c(nnn4C4CC4)c3C)ccc2C)S(=O)(=O)c2cccnc2O1,< 1 nM
12,Cc1ccc(C(CC(=O)O)c2ccn3c(C(F)(F)F)nnc3c2C)nc1CN1CC2(CC2)Oc2ncccc2S1(=O)=O (stereo unspecified),< 1 nM
13,Cc1ccc([C@@H](c2cc(C)n3c(C(F)(F)F)nnc3c2C)C(C)C(=O)O)cc1CN1C[C@@H]2CCCCN2c2ncccc2S1(=O)=O (stereo partly specified),< 1 nM
14,Cc1ccc([C@H](CC(=O)O)c2ccn3c(C(F)(F)F)nnc3c2C)cc1CN1C[C@@H]2CCC(F)(F)CN2c2ncccc2S1(=O)=O,< 1 nM
15,Cc1ccc([C@H](CC(=O)O)c2ccn3c(C(F)(F)F)nnc3c2C)nc1CN1CC2(CC2)Oc2ncccc2S1(=O)=O,< 1 nM
16,Cc1cnc2c(c1)S(=O)(=O)N(Cc1cc([C@H](CC(=O)O)c3ccn4c(C(F)F)nnc4c3C)ccc1C)CC1(CC1)O2,< 1 nM
17,Cc1ccc([C@@H](c2ccn3c(C(F)(F)F)nnc3c2C)C(C)(C)C(=O)O)cc1CN1CC2(CCOCC2)Oc2nc(N[C@@H](C)CCO)ccc2S1(=O)=O,< 1 nM
18,Cc1ccc([C@H](CC(=O)O)c2ccc3c(nnn3C3CC3)c2C)cc1CN1C[C@H]2CCCN2c2ncccc2S1(=O)=O,< 1 nM
19,Cc1ccc(C(CC(=O)O)c2ccn3c(C(F)(F)F)nnc3c2C)nc1CN1CC2(CC2)Oc2ncc(F)cc2S1(=O)=O (stereo unspecified),< 1 nM
20,Cc1ccc(C(CC(=O)O)c2ccn3c(C(F)F)nnc3c2C)cc1CN1C[C@H]2CCCN2c2ncc(C#N)cc2S1(=O)=O (stereo partly specified),< 1 nM
21,Cc1ccc([C@@H](CC(=O)O)c2ccn3c(C(F)F)nnc3c2C)cc1CN1C[C@@H]2CCCCN2c2ncccc2S1(=O)=O,< 1 nM
22,Cc1cnc2c(c1)S(=O)(=O)N(Cc1cc([C@@H](c3ccc4c(nnn4C4CC4)c3C)C(C)(C)C(=O)O)cnc1C)CC1(CC1)O2,< 1 nM
